System: H9
Assay: Compound was found to have no significant inhibitory activity against HIV in H9 cells
Format: functional, cell-based
Details: Homo sapiens

`Cn1cc([C@H]2C[C@H](N=[N+]=[N-])[C@@H](CO)O2)c(=O)[nH]c1=O` was tested, and the Activity was “No significant inhibitory activity against HIV in H9 cells”.
With `Cc1cn(C2CC(CO)C(O)C2F)c(=O)[nH]c1=O` (configuration not stated) the Activity was “No significant inhibitory activity against HIV in H9 cells”.

— ChEMBL document CHEMBL1125105, “Synthesis of 1-methyl-5-(3-azido-2,3-dideoxy-beta-D-erythro-pentofuranosyl)uracil and 1-methyl-5-(3-azido-2,3-dideoxy-2-fluoro-beta-D-arabinofuranosyl)uracil. The C-nucleoside isostere of 3'-azido-3'-deoxythymidine and its 2'-"up"-fluoro analogue” (J Med Chem, 1990)
